Active and inactive are the calls of the source. The rule behind the calls is not given here.
Assays:
[1] = target: Matrix metalloproteinase-9 (Homo sapiens) (UniProt P14780); test: Inhibition of MMP9 at 10 uM
[2] = target: T1, Protein deacetylase HDAC6 (Homo sapiens, UniProt Q9UBN7)
T1 sequence (Q9UBN7 whole entry): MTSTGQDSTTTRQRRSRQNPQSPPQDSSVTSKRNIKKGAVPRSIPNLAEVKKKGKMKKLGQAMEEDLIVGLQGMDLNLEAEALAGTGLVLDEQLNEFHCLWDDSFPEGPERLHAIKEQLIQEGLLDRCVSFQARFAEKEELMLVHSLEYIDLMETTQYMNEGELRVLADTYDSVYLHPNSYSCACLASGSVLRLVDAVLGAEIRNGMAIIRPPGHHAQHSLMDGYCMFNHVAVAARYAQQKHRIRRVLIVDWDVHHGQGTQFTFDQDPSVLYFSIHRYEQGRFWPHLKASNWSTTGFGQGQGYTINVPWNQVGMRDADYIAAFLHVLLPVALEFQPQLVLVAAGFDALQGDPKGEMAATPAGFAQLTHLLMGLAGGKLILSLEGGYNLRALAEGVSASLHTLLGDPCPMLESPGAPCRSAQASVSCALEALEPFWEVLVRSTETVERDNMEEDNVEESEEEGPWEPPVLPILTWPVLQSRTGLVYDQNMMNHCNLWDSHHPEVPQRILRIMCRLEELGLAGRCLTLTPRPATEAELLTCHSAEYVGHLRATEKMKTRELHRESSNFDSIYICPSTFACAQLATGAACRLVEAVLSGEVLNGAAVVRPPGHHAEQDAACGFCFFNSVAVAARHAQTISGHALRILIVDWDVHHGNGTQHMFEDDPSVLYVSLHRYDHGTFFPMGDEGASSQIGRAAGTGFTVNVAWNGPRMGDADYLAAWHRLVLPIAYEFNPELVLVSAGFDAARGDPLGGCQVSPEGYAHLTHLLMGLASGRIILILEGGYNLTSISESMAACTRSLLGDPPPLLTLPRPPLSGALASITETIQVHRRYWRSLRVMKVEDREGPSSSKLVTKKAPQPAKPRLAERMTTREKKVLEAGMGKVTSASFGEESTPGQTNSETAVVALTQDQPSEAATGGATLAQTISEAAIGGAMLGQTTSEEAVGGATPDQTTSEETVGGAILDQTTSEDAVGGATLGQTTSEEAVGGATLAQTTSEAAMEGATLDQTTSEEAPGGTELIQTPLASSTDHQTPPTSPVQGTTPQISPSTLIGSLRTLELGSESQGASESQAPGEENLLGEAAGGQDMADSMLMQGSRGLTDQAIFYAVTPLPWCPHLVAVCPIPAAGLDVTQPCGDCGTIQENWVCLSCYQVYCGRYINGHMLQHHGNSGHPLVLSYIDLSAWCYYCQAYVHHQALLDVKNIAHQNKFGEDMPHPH
Description: Competitive inhibition of HDAC6 using KI-104 as substrate by fluorescence assay

A2780 = test: Antitumor activity against human A2780 cells xenografted in nude BALB/c mouse assessed as tumor growth inhibition at 100 mg/kg, po qd for 21 days measured on day 9; format: functional; conditions: read-out: TGI
[3] = AUC (0 to infinity) in Wistar rat at 10 mg/kg, po; format: ADME, organism-based; design: time infinity, dose 10 mg/kg, route oral; conditions: plasma
[4] = Oral bioavailability in Beagle dog at 10 mg/kg; format: ADME, organism-based, Canis lupus familiaris; conditions: in vivo
[5] = Tmax in Wistar rat at 10 mg/kg, po; format: ADME, organism-based; design: dose 10 mg/kg, route oral; conditions: in vivo
[6] = Oral bioavailability in nude BALB/c mouse at 50 mg/kg; format: ADME, organism-based; conditions: in vivo
[7] = Terminal half life in Wistar rat at 2 mg/kg, iv; format: ADME, organism-based; design: dose 2 mg/kg, route intravenous; conditions: in vivo, read-out: beta t1/2 (converted)
MV4-11 [8] = test: Antitumor activity against human MV4-11 cells xenografted in nude BALB/c mouse assessed as tumor growth inhibition at 50 mg/kg, po qd for 21 days measured on day 21; format: functional; conditions: MV4-11, 504 h, read-out: TGI
Mus musculus = test: Toxicity in nude BALB/c mouse xenografted with human MV4-11 cells assessed as maximum body weight loss at 25 mg/kg, po QD for 21 days measured on day 10; format: organism-based; design: dose 25 mg/kg, route oral; conditions: in vivo, 504 h
MV4-11 [9] = test: Antitumor activity against human MV4-11 cells xenografted in nude BALB/c mouse assessed as tumor growth inhibition at 25 mg/kg, po qd for 21 days measured on day 21; format: functional; conditions: MV4-11, 504 h, read-out: TGI
Cytochrome P450 2C19 = Cytochrome P450 2C19 (Homo sapiens, UniProt P33261); test: Inhibition of CYP2C19 in human liver microsomes by fluorescence assay; format: ADME, Microsome
[10] = Oral bioavailability in Wistar rat at 10 mg/kg; format: ADME, organism-based; conditions: in vivo
[11] = Toxicity in po dosed athymic nu/nu Harlan mouse with xenografted human HCT116 cells assessed as maximum tolerated administered qd for 21 days; format: organism-based, HCT-116; conditions: in vivo
Histone deacetylase 5 = Histone deacetylase 5 (Homo sapiens, UniProt Q9UQL6)
Description: Competitive inhibition of HDAC5 using KI-104 as substrate by fluorescence assay

[12] = Time required for attaining concentration above IC50 of HCT116 in tumor of nude BALB/c mouse xenografted with HCT116 cells at 100 mg/kg, po administered as single dose; format: ADME, organism-based, Neoplasm, HCT-116; design: dose 100 mg/kg, route oral; conditions: in vivo
[13] = Volume of distribution at steady state in Beagle dog at 2 mg/kg, iv; format: ADME, organism-based, Canis lupus familiaris; design: dose 2 mg/kg, route intravenous; conditions: in vivo, read-out: Vdss
[14] = Half life in dog liver microsomes; format: ADME, Canis lupus familiaris, Microsome
MV4-11 [15] = test: Antiproliferative activity against human MV4-11 cells; format: functional, cell-based
[16] = Tmax in Beagle dog at 10 mg/kg, po; format: ADME, organism-based, Canis lupus familiaris; design: dose 10 mg/kg, route oral; conditions: in vivo
Histone deacetylase 8 = target: T2, Histone deacetylase 8 (Homo sapiens, UniProt Q9BY41)
T2 sequence (Q9BY41 whole entry): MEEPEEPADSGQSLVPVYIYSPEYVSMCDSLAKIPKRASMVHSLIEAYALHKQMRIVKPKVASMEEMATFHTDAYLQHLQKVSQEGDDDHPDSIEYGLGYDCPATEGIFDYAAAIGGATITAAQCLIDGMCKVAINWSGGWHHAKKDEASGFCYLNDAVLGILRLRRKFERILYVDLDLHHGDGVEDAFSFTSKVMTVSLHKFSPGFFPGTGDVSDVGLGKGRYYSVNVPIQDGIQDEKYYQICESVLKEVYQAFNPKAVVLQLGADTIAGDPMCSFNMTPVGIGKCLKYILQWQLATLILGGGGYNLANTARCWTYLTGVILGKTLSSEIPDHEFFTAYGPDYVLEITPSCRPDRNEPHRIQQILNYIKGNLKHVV
Description: Competitive inhibition of HDAC8 using KI-104 as substrate by fluorescence assay

Histone deacetylase 1 = Histone deacetylase 1 (Homo sapiens, UniProt Q13547)
Description: Inhibition of full length recombinant HDAC1 using Fluor de Lys as substrate by fluorescence assay

Histone deacetylase 3 = Histone deacetylase 3 (Homo sapiens, UniProt O15379)
Description: Competitive inhibition of HDAC3 using KI-104 as substrate by fluorescence assay

Cytochrome P450 3A4 [17] = target: T3, Cytochrome P450 3A4 (Homo sapiens, UniProt P08684); test: Inhibition of CYP3A4 in human liver microsomes
Cytochrome P450 3A4 [18] = target: T3, Cytochrome P450 3A4; test: Inhibition of recombinant CYP3A4 after 30 mins by fluorescence assay; format: ADME

T3 sequence (P08684 whole entry): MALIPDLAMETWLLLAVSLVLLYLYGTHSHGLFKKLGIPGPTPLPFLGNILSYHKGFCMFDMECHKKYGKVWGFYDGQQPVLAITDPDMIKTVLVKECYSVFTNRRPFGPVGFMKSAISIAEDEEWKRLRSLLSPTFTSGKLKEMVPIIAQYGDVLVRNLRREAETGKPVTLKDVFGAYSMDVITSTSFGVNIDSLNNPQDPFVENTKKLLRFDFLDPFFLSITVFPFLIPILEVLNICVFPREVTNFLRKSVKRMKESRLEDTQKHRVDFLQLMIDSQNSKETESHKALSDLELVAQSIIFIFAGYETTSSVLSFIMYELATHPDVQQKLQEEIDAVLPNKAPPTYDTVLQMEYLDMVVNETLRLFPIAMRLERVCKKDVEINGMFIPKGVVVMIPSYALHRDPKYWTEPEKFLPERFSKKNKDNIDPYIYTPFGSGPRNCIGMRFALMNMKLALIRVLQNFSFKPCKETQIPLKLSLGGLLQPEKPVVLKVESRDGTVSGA
Histone deacetylase 5, sequence (Q9UQL6 whole entry): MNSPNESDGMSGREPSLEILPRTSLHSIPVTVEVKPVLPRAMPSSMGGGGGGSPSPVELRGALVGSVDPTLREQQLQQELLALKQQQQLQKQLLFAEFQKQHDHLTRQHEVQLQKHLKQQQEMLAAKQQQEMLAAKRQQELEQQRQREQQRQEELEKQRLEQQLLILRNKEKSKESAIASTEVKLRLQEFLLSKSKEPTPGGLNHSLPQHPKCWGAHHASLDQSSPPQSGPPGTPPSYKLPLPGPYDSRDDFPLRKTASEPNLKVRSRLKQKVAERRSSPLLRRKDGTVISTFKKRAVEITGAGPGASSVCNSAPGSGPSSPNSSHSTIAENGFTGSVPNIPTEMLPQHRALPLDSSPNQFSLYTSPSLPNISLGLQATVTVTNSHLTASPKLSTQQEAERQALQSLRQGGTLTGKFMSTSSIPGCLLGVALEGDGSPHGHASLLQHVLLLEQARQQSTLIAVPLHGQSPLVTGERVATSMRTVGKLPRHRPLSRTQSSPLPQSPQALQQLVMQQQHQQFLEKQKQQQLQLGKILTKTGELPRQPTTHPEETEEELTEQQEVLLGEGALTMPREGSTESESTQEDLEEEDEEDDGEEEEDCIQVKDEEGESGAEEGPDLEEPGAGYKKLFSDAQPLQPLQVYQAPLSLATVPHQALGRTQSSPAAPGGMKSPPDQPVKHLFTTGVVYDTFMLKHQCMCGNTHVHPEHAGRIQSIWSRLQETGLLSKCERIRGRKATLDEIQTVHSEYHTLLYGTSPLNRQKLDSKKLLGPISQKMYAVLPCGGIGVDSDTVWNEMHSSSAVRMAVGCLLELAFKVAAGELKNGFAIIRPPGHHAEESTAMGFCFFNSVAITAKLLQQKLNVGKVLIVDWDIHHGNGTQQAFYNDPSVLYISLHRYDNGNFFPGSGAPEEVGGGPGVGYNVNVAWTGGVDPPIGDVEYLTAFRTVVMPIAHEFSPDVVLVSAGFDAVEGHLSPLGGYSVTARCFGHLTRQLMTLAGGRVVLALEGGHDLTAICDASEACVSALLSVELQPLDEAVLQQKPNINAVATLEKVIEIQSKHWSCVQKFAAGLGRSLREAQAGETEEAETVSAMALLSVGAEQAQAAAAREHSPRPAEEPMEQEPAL
Cytochrome P450 2C19, sequence (P33261 whole entry): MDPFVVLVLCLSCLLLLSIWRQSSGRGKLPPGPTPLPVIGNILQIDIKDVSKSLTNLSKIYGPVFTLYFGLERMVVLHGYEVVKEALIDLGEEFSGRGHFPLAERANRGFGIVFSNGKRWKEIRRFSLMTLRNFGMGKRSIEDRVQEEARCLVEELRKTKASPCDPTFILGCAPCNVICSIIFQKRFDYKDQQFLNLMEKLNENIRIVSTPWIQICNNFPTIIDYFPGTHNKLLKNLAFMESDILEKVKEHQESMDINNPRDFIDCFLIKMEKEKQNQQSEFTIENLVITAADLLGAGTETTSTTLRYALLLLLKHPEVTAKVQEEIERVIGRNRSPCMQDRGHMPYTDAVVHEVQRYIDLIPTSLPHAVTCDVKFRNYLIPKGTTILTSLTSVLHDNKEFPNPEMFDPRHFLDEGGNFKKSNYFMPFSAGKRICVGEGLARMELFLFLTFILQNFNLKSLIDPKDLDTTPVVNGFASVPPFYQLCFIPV
Histone deacetylase 1, sequence (Q13547 whole entry): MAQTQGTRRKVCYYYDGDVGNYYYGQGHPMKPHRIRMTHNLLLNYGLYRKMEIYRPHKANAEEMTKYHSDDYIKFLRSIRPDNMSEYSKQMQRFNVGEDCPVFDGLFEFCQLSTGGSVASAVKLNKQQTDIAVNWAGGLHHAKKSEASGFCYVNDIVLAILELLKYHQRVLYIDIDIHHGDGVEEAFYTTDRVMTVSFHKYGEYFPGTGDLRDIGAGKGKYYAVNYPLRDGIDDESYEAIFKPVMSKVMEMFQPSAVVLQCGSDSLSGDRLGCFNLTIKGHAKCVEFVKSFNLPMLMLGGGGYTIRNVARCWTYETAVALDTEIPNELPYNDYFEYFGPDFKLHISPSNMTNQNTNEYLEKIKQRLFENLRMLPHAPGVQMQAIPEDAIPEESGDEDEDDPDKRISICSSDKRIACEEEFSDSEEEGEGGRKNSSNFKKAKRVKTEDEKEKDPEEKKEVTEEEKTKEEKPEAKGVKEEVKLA
Histone deacetylase 3, sequence (O15379 whole entry): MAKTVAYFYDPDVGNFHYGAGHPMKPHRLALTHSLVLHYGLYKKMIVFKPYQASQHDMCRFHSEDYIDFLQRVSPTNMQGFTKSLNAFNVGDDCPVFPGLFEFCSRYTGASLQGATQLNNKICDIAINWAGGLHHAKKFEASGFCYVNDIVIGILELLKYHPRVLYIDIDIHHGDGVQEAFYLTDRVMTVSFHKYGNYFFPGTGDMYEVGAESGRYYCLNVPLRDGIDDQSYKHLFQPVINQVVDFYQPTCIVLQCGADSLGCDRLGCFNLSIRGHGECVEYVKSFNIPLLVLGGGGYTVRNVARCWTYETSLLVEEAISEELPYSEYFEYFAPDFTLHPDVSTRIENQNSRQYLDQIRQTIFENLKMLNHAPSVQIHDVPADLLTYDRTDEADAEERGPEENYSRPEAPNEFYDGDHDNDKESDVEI
Matrix metalloproteinase-9 (Homo sapiens), sequence (P14780 whole entry): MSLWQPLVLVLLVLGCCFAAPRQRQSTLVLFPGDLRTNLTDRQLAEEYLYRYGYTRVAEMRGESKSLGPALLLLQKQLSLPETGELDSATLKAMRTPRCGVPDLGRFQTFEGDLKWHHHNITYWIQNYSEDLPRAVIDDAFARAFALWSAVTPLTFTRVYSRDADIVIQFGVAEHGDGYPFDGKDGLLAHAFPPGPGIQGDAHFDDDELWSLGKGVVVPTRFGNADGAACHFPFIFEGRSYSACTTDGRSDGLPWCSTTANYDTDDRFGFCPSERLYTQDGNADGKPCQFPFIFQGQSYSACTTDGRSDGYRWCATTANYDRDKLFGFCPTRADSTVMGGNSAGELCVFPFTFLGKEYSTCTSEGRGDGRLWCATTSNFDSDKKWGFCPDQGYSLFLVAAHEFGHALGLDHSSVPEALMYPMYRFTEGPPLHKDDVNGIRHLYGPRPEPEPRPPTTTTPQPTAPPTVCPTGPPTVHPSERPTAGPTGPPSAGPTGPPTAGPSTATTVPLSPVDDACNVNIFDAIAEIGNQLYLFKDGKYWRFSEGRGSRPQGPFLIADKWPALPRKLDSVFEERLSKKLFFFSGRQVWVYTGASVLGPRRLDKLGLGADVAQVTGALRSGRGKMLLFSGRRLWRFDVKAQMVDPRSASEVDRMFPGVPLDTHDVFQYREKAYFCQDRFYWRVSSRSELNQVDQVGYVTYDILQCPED

Row | SMILES | Ki [2] [nM] | bioavailability [4] [%] | bioavailability [6] [%] | IC50 (Cytochrome P450 2C19) [nM] | bioavailability [10] [%] | MTD at 504 h [11] [mg/kg] | Ki (Histone deacetylase 5) [nM] | Ki (Histone deacetylase 8) [nM] | IC50 (Histone deacetylase 1) [nM] | Ki (Histone deacetylase 3) [nM] | IC50 (Cytochrome P450 3A4 [17]) [nM] | IC50 (Cytochrome P450 3A4 [18]) [nM] | other results
1 | CCCCc1nc2cc(/C=C/C(=O)NO)ccc2n1CCN(CC)CC.Cl.Cl | 247 | 65 | 34 | 5780 | 3.1 | 50 | 21 |  |  |  |  |  | inhibition [1]: inactive; inhibition in vivo at 100 mg/kg (A2780): 63%; AUC(0-inf) [3]: 0.181 µM·h; Tmax [5]: 14.4 min; half-life [7]: 53.4 min; inhibition in vivo at 50 mg/kg (MV4-11 [8]): 114%; Activity (Mus musculus): 10%; inhibition in vivo at 25 mg/kg (MV4-11 [9]): 61%; Time [12]: 7.1 h; Vd [13]: 4.24 L/kg; half-life [14]: > 60 min; IC50 (MV4-11 [15]): 100 nM; Tmax [16]: 45 min
2 | CN(C)CC(C)(C)Cn1c(CC(C)(C)C)nc2cc(/C=C/C(=O)NO)ccc21 | 94 | 110 | 51 | 8100 | 4 |  | 11 | 65 | 46 | 20 | > 25000 | 2280 | 
3 | CCCCCCc1nc2cc(/C=C/C(=O)NO)ccc2n1CCN(C)C | 300 |  |  | 10300 |  | 200 | 9.2 | 136 | 28 | 20 | > 25000 | 330 | 

Reference: ChEMBL document CHEMBL1828590 (J Med Chem, 2011)
